Data published in patent publication US9550808B2, “Peptide inhibitors of nicotinic acetylcholine receptor” (LIMITED LIABILITY COMPANY SYNEURO, priority 2013, dated 2017).
Non-standard residues stand in square brackets, D forms with d. Residues, ends and D or L forms follow the SMILES beside them. *: point of attachment. Dab = NCC[C@H](N)C(=O)O; NHBn = c1ccc(CN*)cc1; βAla = NCCC(=O)O

What was measured:
[1] = biological target: T1, muscle-type nicotinic acetylcholine receptor (α1, β1, δ and ε-subunits) (Homo sapiens, UniProt P02708+Q04844+Q07001); assay: Inhibition of acetylcholine-induced current through muscle-type nAChR expressed in Xenopus laevis oocytes (two-electrode voltage clamp); format: cell-based; conditions: for inhibiting activity towards the muscle receptor, retrosequences compared with initial Az3 and [Tyr2]Az3: 1 mM
T1 construct: expressed in transfected cells; host or cells: Xenopus laevis oocytes (nuclear injection of plasmids, CMV promoter)

[2] = tested on: mimic wrinkles; conditions: cited from earlier work
[3] = tested on: male Balb mice; assay: Acute toxicity in mice (intraperitoneal and per os); format: in vivo; conditions: for acute toxicity after intraperitoneal administration: male Balb mice, 1, 3, 10 and 30 mg/kg i.p.; for acute toxicity per os (administration into the stomach): male Balb mice, 2.5, 10, 40, 160 mg/kg per os
Protocol: Estimation of acute toxicity (LD50) after intraperitoneal administration of peptide H-Trp-Trp-Pro-Lys-Pro-OH (SEQ ID NO: 1) was carried out on 40 male Balb mice weighting 20-23 g, separated into five equal groups. Mice were intraperitoneally injected with the peptide at doses of 1 mg/kg, 3 mg/kg, 10 mg/kg and 30 mg/kg in 0.2 ml sterile 0.9% NaCl solution. Control animals were injected with same volume of 0.9% NaCl.
Investigation of acute toxicity (LD50 per os) after administration of the peptide directly into a stomach by a special catheter was conducted on 40 male Balb mice weighting 20-23 g. Animals were randomly divided into 5 groups. The drug was applied at doses 2.5 mg/kg, 10 mg/kg, 40 mg/kg, 160 mg/kg in 0.2 ml sterile solution of 0.9%. Control animals were injected with the same volume of 0.9% NaCl.

[4] = cream containing 5% Vialox, 28-day application

T1 sequence (P02708 21-457): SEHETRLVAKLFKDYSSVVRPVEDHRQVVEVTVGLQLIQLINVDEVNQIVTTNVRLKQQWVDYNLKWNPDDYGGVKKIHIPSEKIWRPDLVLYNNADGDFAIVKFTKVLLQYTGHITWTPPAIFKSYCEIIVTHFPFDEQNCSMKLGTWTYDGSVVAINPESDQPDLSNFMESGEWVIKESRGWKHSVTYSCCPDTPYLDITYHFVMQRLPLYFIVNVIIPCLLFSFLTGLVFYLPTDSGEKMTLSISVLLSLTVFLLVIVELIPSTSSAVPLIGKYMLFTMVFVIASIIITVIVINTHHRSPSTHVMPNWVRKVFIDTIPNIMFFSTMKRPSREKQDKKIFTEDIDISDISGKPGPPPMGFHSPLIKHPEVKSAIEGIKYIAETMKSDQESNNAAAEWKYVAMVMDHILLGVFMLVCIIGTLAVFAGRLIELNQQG
T1 sequence (Q04844 21-493): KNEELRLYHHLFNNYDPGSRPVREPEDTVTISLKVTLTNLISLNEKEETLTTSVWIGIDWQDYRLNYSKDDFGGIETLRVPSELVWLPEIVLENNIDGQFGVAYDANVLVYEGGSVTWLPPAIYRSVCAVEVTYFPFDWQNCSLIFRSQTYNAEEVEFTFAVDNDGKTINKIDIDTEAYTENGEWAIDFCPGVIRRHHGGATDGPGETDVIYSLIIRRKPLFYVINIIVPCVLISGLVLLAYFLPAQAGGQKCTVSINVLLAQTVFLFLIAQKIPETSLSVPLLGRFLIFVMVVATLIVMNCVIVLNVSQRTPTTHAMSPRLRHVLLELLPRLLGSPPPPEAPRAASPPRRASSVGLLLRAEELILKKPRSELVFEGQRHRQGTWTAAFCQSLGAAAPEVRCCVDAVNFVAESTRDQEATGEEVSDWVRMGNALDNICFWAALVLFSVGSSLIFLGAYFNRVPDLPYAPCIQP
T1 sequence (P11230 24-501, further chain): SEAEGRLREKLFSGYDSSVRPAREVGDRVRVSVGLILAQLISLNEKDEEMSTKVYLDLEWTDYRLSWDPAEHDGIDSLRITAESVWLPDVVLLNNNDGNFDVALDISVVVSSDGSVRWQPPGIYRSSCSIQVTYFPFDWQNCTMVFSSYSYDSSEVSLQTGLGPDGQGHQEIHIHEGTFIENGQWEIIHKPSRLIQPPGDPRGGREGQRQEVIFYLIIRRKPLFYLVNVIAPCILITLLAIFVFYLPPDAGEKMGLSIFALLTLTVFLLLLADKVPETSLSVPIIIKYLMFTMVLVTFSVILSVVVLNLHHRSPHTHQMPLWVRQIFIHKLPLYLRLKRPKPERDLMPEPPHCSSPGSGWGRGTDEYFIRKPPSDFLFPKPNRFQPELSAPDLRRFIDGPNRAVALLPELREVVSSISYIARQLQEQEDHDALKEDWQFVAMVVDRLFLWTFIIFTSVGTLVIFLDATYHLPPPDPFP
T1 sequence (Q07001 22-517): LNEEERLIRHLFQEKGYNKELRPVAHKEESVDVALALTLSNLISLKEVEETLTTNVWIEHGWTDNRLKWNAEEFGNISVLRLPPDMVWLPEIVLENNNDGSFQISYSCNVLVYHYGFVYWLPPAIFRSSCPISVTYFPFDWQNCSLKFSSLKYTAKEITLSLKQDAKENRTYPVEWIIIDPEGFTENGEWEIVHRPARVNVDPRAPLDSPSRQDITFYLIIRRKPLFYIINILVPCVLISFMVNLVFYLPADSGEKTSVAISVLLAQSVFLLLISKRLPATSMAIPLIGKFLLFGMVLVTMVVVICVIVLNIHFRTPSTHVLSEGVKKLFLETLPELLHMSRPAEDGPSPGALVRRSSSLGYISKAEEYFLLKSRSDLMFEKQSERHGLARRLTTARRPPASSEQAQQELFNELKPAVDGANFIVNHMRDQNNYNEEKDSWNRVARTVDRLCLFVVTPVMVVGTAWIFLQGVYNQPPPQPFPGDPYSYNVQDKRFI

NCCC(=O)N1CCC[C@H]1C(=O)N[C@@H](CCN)C(=O)NCc1ccccc1 [Syn-Ake, H-β-Ala-Pro-Dab-NHBzl] (H-[βAla]-Pro-[Dab]-NHBn)
IC50 [1]: 180 µM | decrease of depth of wrinkles on foreheads ([2]; cream containing 4% Syn-Ake, 28-day application, volunteers): up to 52%

Ac-Glu-Glu-Met-Gln-Arg-Arg-NH2 (Ac-EEMQRR-NH2) [argireline, cosmetic hexapeptide repeating a fragment of SNAP 25]
decrease in the depth of mimic wrinkles ([2]; cream containing 10% argireline, topical 30-day use, volunteers): 30%

DNWWPKPPHQGPRPPRPRPKP [azemiopsin, reference compound]
blockage of the muscle receptor activity ([1]; 50 μM, 20 μM acetylcholine (FIG. 1)): Complete blockage

H-Gly-Pro-Arg-Pro-Ala-NH2 (H-GPRPA-NH2) [Vialox]
reduction of skin roughness [2, 4]: up to 47% | reduction of wrinkle size [2, 4]: up to 49%

H-Tyr-D-Ala-Gly-Phe-Leu-OH [Leuphasyl]
enhancement of argireline effect ([2]; Leuphasyl in combination with argireline): 1.5 fold

H-WWPKP-OH [SEQ ID NO: 1, H-Trp-Trp-Pro-Lys-Pro-OH]
inhibition of acetylcholine induced currents, comparison of overlapping pentapeptide fragments of azemiopsin ([1]; 150 μg/ml (FIG. 2)): most active | acute toxicity after intraperitoneal administration [3]: did not reveal any toxic effects | acute toxicity after intraperitoneal administration ([3]; listed as SEQ ID NO:1): does not exhibit toxicity | acute toxicity per os (administration into the stomach) [3]: no toxic effect was observed | acute toxicity per os (administration into the stomach) ([3]; listed as SEQ ID NO:1): does not exhibit toxicity

H-WYPKP-NH2 [SEQ ID NO: 42, H-Trp-Tyr-Pro-Lys-Pro-NH2]
IC50 [1]: 23 µM | times more functionally active than commercial analogue Syn-Ake ([1]; ratio of IC50 values): eight

PKPWW
inhibiting activity towards the muscle receptor, retrosequences compared with initial Az3 and [Tyr2]Az3 [1]: reduced

PKPYW
inhibiting activity towards the muscle receptor, retrosequences compared with initial Az3 and [Tyr2]Az3 [1]: reduced
